The results in this text go back to article PMC10150365 (Journal of Medicinal Chemistry, 2023).

Each structure is given as a SMILES string.

Common to all, as to experiment: Cerep SafetyScreen-87
Conditions in all cases: n=2

The target of experiment [1] is T1, Peptidase, CTSG (Cathepsin G) (Homo sapiens, UniProt P08311).
T1 construct: purchased Eurofins Cerep/Panlabs SafetyScreen-87
It counts as biochemical.

Experiment [2] concerns the target T2, Muscarinic M2 (Homo sapiens, UniProt P08172).
T2 construct: purchased Eurofins Cerep/Panlabs SafetyScreen-87
It counts as binding.

Experiment [3] deals with Adenosine A2A (Homo sapiens, UniProt P29274). It counts as binding. Details: purchased Eurofins Cerep/Panlabs SafetyScreen-87.
Experiment [4] addresses T3, Serotonin (5-Hydroxytryptamine) 5-HT1A (Homo sapiens, UniProt P08908).
T3 construct: purchased Eurofins Cerep/Panlabs SafetyScreen-87
It counts as binding.

In experiment [5] the target is T4, Angiotensin AT1 (Homo sapiens, UniProt P30556).
T4 construct: purchased Eurofins Cerep/Panlabs SafetyScreen-87
The format is binding.

Experiment [6] concerns the target T5, GABAB1A (Homo sapiens, UniProt Q9UBS5).
T5 construct: purchased Eurofins Cerep/Panlabs SafetyScreen-87
The format is binding.

Experiment [7] has as its target T6, Serotonin (5-Hydroxytryptamine) 5-HT2A (Homo sapiens, UniProt P28223).
T6 construct: purchased Eurofins Cerep/Panlabs SafetyScreen-87
The format is binding.

The target in experiment [8] is T7, Protein Tyrosine Kinase, LCK (Homo sapiens, UniProt P06239).
T7 construct: purchased Eurofins Cerep/Panlabs SafetyScreen-87
It counts as biochemical.

The target in experiment [9] is T8, Serotonin (5-Hydroxytryptamine) 5-HT3 (Homo sapiens, UniProt P46098).
T8 construct: purchased Eurofins Cerep/Panlabs SafetyScreen-87
The format is binding.

Experiment [10] deals with T9, Cholecystokinin (CCKB) (Homo sapiens, UniProt P32239).
T9 construct: purchased Eurofins Cerep/Panlabs SafetyScreen-87
The format is binding.

Experiment [11] concerns the target T10, Monoamine Oxidase MAO-A (Homo sapiens, UniProt P21397).
T10 construct: purchased Eurofins Cerep/Panlabs SafetyScreen-87
The format is biochemical.

Experiment [12] addresses T11, Melanocortin MC4 (Homo sapiens, UniProt P32245).
T11 construct: purchased Eurofins Cerep/Panlabs SafetyScreen-87
The format is binding.

The target in experiment [13] is T12, Adrenergic α2B (Homo sapiens, UniProt P18089).
T12 construct: purchased Eurofins Cerep/Panlabs SafetyScreen-87
The format is binding.

Experiment [14] addresses T13, Dopamine D2S (Homo sapiens, UniProt P14416).
T13 construct: purchased Eurofins Cerep/Panlabs SafetyScreen-87
The format is binding.

In experiment [15] the target is T14, Calcium Channel N-type (Rattus norvegicus, UniProt Q02294).
T14 construct: purchased Eurofins Cerep/Panlabs SafetyScreen-87
The format is binding.

T7 sequence (P06239 whole entry): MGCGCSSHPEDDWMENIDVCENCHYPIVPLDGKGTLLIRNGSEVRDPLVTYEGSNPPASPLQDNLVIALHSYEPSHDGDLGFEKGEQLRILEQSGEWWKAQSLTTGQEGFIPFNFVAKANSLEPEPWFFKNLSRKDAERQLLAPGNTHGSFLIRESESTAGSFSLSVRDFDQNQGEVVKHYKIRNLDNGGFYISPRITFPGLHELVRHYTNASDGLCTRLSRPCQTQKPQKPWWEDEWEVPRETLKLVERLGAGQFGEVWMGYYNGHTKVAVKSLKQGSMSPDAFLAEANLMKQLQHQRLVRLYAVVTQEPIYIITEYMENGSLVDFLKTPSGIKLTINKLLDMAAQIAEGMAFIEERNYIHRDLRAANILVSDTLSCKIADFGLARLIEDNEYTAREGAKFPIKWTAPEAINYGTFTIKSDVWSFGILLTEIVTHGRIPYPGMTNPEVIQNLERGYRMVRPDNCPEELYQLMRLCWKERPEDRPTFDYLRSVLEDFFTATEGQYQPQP
T4 sequence (P30556 whole entry): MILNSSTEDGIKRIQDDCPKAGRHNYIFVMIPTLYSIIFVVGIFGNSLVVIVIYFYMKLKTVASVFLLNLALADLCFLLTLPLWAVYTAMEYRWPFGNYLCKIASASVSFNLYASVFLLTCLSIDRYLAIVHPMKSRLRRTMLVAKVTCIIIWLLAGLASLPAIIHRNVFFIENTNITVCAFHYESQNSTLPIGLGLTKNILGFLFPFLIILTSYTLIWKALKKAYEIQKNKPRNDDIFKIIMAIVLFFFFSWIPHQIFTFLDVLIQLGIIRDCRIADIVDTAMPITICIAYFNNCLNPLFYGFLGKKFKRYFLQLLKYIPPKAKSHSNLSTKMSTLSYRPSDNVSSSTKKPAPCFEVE
Chain of Adenosine A2A (P29274 whole entry): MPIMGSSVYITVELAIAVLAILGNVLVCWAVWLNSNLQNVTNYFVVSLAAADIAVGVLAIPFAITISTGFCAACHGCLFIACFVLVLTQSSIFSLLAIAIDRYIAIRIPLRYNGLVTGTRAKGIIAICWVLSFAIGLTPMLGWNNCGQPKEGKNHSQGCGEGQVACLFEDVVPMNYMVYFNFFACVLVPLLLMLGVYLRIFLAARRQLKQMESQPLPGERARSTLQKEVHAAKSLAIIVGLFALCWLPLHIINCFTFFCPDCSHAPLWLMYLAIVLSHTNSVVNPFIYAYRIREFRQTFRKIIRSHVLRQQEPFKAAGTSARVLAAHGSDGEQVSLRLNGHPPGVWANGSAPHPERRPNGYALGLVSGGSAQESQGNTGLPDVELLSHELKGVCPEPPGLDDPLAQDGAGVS
T14 sequence (Q02294 whole entry): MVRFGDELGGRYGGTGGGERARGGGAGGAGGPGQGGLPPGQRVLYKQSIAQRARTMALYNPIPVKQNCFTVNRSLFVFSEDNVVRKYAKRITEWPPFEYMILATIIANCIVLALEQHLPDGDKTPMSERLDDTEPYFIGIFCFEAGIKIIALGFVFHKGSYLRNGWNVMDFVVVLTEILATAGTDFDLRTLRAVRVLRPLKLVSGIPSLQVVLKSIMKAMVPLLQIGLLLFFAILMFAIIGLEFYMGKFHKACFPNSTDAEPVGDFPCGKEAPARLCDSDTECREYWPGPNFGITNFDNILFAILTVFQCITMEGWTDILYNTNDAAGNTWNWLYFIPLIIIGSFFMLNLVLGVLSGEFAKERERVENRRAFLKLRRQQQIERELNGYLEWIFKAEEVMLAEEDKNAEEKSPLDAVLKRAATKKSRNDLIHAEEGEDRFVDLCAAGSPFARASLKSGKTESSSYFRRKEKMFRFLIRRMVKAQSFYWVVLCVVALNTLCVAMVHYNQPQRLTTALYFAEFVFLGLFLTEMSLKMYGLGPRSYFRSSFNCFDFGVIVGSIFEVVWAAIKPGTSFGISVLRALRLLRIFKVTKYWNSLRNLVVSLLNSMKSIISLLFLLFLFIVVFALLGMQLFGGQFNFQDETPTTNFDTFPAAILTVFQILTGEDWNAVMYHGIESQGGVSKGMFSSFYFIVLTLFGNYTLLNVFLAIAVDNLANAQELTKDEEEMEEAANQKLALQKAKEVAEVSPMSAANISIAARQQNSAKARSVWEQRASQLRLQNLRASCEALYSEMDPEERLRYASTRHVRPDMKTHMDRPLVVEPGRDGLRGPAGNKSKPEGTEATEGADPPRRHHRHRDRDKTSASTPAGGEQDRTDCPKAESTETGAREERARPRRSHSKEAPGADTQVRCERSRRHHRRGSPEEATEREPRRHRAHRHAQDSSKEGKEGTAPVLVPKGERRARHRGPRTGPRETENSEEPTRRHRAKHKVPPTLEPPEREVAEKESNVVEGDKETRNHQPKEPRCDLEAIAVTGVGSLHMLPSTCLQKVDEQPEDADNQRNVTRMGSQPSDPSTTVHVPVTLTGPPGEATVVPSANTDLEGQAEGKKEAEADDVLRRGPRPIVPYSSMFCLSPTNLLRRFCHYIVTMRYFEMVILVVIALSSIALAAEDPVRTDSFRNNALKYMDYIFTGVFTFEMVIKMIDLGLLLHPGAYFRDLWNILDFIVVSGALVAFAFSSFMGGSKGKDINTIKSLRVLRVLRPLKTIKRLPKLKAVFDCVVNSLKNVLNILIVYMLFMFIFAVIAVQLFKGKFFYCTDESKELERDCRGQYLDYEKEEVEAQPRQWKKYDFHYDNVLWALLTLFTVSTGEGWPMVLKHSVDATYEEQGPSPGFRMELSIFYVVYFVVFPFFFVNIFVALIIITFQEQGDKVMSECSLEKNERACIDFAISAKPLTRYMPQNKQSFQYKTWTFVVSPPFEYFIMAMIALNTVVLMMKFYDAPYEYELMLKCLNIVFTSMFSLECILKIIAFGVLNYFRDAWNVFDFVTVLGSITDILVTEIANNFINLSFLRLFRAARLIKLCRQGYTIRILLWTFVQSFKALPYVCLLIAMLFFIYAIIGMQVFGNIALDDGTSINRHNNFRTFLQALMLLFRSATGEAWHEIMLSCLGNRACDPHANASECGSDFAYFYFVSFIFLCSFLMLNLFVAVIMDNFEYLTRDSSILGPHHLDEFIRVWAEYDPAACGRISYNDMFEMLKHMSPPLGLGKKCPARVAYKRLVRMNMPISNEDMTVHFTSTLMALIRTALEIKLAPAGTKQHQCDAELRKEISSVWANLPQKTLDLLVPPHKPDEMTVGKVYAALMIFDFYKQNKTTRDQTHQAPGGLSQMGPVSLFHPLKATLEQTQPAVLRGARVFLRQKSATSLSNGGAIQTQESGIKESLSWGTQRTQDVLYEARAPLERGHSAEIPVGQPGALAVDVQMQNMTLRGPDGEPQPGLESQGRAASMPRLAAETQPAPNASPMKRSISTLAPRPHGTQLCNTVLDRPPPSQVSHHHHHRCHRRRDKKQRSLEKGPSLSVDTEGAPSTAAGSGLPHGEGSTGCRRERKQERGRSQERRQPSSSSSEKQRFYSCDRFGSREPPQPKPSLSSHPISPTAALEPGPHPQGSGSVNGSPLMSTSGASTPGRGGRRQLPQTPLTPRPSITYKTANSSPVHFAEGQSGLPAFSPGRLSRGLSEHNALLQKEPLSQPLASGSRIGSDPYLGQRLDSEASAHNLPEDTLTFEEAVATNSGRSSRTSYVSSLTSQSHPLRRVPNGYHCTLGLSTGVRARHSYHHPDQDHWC
T12 sequence (P18089 whole entry): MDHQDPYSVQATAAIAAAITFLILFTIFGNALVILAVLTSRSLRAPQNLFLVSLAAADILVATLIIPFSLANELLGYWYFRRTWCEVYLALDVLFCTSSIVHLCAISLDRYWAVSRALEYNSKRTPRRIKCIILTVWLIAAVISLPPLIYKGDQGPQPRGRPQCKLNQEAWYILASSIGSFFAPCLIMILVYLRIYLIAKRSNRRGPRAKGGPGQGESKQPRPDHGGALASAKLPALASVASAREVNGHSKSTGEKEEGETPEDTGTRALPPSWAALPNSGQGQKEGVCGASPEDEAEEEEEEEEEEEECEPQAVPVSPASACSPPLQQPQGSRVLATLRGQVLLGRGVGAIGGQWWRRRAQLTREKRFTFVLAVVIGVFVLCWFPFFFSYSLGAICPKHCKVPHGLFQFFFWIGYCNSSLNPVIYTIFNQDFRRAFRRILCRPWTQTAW
T9 sequence (P32239 whole entry): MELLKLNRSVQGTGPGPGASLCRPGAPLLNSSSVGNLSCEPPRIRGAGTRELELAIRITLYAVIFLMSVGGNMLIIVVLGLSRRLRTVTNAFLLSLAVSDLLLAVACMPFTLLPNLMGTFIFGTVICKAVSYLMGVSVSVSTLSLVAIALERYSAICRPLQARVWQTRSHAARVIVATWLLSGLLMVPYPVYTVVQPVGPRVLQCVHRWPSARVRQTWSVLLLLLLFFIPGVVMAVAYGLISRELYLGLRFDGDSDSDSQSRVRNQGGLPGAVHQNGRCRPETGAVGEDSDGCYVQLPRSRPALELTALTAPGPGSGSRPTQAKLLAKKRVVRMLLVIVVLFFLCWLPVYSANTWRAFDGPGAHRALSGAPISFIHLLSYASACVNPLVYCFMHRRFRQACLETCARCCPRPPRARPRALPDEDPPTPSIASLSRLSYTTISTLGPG
T10 sequence (P21397 whole entry): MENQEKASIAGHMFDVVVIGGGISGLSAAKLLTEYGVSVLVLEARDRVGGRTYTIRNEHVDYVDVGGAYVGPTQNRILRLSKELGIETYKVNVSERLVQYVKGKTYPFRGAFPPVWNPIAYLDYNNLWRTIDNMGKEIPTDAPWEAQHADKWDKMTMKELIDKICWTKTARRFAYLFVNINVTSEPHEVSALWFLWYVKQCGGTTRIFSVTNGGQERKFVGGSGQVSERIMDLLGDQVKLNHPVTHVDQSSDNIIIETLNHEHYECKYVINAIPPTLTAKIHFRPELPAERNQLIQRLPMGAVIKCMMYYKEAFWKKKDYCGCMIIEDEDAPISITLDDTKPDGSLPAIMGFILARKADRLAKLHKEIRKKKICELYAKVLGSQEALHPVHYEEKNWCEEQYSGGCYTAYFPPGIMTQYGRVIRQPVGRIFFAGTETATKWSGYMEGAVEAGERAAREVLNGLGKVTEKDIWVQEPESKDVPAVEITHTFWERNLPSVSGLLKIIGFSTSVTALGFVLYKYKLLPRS

Turning to `CCN1CCN(Cc2ccc3cc(C(=O)Nc4cc(NC(=O)c5ccc6c(c5)OCCO6)ccc4F)ccc3n2)CC1` [Compound 22, N-(5-(2,3-Dihydrobenzo[b][1,4]dioxine-6-carboxamido)-2-fluorophenyl)-2-((4-ethylpiperazin-1-yl)methyl)quinoline-6-carboxamide], the inhibition at 10 µM in [1] is 1%; in [2] it was 52%; in experiment [3], 91%; in experiment [4] it was 4%; in [5] it was 1%; in [6] it was 4%. For the same compound, the inhibition at 10 µM in experiment [7] is 64%; in experiment [8], -8%; in experiment [9], -10%; in experiment [10] it was -4%; in experiment [11], 77%; in experiment [12], 2%. Moreover, the inhibition at 10 µM in [13] came to 79%; in experiment [14] it was 5%; in [15], 9%.

Broadly, the inhibition is the relative decrease from the control value, in per cent.
